# Assay results from patent US6620839B2, “1,3-disubstituted and 1,3,3-trisubstituted pyrrolidines as histamine-3 receptor ligands and their therapeutic applications” (Abbott Laboratories, priority 2000, dated 2003).
# Biological target: T1, histamine-3 receptor (Rattus norvegicus, UniProt Q9QYN8)
# T1 construct: from tissue; host or cells: male Sprague-Dawley rat brain cortex membranes
# Experiment: Histamine-3 receptor binding, (3H)-N-α-methylhistamine displacement in rat cortical membranes
# Conditions: male Sprague-Dawley rat brain cortical membranes; (3H)-N-α-methylhistamine ~0.6 nM; 30 minutes at 25° C.; Cheng-Prusoff
# Method in brief: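 Male Sprague-Dawley rat cortical membranes incubated 30 min at 25 °C with compound dilutions and [3H]-N-α-methylhistamine. Nonspecific binding defined with 3 μM thioperamide. Filtration and scintillation counting used; Ki from Hill transformation and Cheng-Prusoff equation.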
# T1 sequence (Q9QYN8 whole entry): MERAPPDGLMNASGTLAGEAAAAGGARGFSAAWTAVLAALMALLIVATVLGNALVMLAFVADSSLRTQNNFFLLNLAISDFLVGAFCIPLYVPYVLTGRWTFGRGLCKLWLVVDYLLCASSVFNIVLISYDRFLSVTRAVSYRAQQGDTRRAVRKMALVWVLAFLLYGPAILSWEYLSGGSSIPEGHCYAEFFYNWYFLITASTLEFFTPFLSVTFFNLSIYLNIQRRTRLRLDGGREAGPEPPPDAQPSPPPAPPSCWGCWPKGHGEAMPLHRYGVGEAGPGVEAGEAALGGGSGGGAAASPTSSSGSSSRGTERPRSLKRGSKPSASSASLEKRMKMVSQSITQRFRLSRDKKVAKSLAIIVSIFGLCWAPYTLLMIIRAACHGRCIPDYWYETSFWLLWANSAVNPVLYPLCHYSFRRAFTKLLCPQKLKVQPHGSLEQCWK
row,Compound,Ki [nM]
1,CN(C(=O)c1ccco1)[C@@H]1CCN(CCCOc2ccc(-c3ccc(C#N)cc3)cc2)C1 [Example 122],20
2,N#Cc1ccc(-c2ccc(OCCCN3CC[C@@H](NS(=O)(=O)c4ccc(C(F)(F)F)cc4)C3)cc2)cc1 [Example 48],60
3,N#Cc1ccc(-c2ccc(OCCCN3CC[C@@H](NC(=O)N4CCOCC4)C3)cc2)cc1 [Example 138],118
4,"N#Cc1ccc(-c2ccc(OCCCN3CC[C@@H](NS(=O)(=O)c4cc(Cl)cc(Cl)c4)C3)cc2)cc1 [Example 32, 3,5-dichloro-N-((3R)-1-{3-[(4′-cyano[1,1′-biphenyl]-4-yl)oxy]propyl}pyrrolidinyl)benzenesulfonamide]",99
5,"Cc1cc(C#N)ccc1-c1ccc(OCCCN2CC[C@@H](N(C)C)C2)cc1 [Example 165, 4′-{3-[(3R)-3-(dimethylamino)-1-pyrrolidinyl]propoxy}-2-methyl-1,1′-biphenyl-4-carbonitrile]",17
6,"CC(=O)c1ccc(OCCCN2CC[C@@H](N3C(=O)N[C@H](C(C)C)C3=O)C2)cc1 [Example 10, (5R)-3-{(3R)-1-[3-(4-acetylphenoxy)propyl]pyrrolidinyl}-5-isopropyl-2,4-imidazolidinedione]",626
7,"N#Cc1ccc(S(=O)(=O)N[C@@H]2CCN(CCCOc3ccc(-c4ccccn4)cc3)C2)cc1 [Example 103, 4-cyano-N-((3R)-1-{3-[4-(2-pyridinyl)phenoxy]propyl}pyrrolidinyl)benzenesulfonamide]",195
8,Cc1cccc(S(=O)(=O)N[C@@H]2CCN(CCCOc3ccc(-c4ccc(C#N)cc4)cc3)C2)c1 [Example 47],12
9,CN(C(=O)c1cccnc1)[C@@H]1CCN(CCCOc2ccc(-c3ccc(C#N)cc3)cc2)C1 [Example 121],16
10,CCc1ccc(S(=O)(=O)N[C@@H]2CCN(CCCOc3ccc(-c4ccc(C#N)cc4)cc3)C2)cc1 [Example 27],18
11,N#Cc1ccc(-c2ccc(OCCCN3CC[C@@H](NS(=O)(=O)c4ccc5ccncc5c4)C3)cc2)cc1 [Example 52],15
12,N#Cc1ccc(-c2ccc(OCCCN3CC[C@@H](NS(=O)(=O)c4ccc(C(F)(F)F)cc4)C3)cc2)cc1 [Example 23],33
13,"COC(=O)N(C)[C@@H]1CCN(CCCOc2ccc(-c3ccc(C#N)cc3)cc2)C1 [Example 113, methyl (3R)-1-{3-[(4′-cyano[1,1′-biphenyl]-4-yl)oxy]propyl}pyrrolidinyl(methyl)carbamate]",13
14,N#Cc1ccc(-c2ccc(OCCCN3CC[C@@H](NS(=O)(=O)C=Cc4ccccc4)C3)cc2)cc1 [Example 44],52
15,N#Cc1ccc(-c2ccc(OCCCN3CC[C@@H](NS(=O)(=O)c4cccc(F)c4)C3)cc2)cc1 [Example 49],13
16,"CCC(C)(C)OC(=O)N(C)[C@@H]1CCN(CCCOc2ccc(-c3ccc(C#N)cc3)cc2)C1 [Example 114, tert-pentyl (3R)-1-{3-[(4′-cyano[1,1′-biphenyl]-4-yl)oxy]propyl}pyrrolidinyl(methyl)carbamate]",65
17,"CC(=O)Nc1ccc(S(=O)(=O)N[C@@H]2CCN(CCCOc3ccc(-c4ccc(C#N)cc4)cc3)C2)cc1Cl [Example 53, N-(2-chloro-4-{[((3R)-1-{3-[(4′-cyano[1,1′-biphenyl]-4-yl)oxy]propyl}pyrrolidinyl)amino]sulfonyl}phenyl)acetamide]",3.9
18,"N#Cc1ccc(-c2ccc(OCCCN3CC[C@@H](NS(=O)(=O)c4ccc(Cl)cc4)C3)cc2)cc1 [Example 18, 4-chloro-N-((3R)-1-{3-[(4′-cyano[1,1′-biphenyl]-4-yl)oxy]propyl}pyrrolidinyl)benzenesulfonamide]",29
19,CN(C)S(=O)(=O)N[C@@H]1CCN(CCCOc2ccc(-c3ccc(C#N)cc3)cc2)C1 [Example 145],9.6
20,N#Cc1ccc(-c2ccc(OCCCN3CC[C@@H](NS(=O)(=O)c4ccc(F)cc4)C3)cc2)cc1 [Example 17],13
